Experimental data: paper PMC11468213, “Ionic Liquid‐Mediated Transdermal Delivery of Thrombosis‐Detecting Nanosensors” (Advanced Healthcare Materials, 2022)
Each block holds one substance with its values, some of them ahead of it.

Columns and labels:
[1] = Colloidal stability by absorption spectrum after storage; assay type: physicochemical; details: presence and absence of CAGE; 24 h room temperature storage; absorbance spectrum
Description: (§1) To assess the solubility, stability, and activity of our nanosensors in CAGE, we conjugated a thrombin substrate (–GGfPRSGGG–) to 40 kDa PEG nanoparticles at an 8:1 substrate:nanoparticle ratio. The substrates were flanked by 5‐carboxyfluorescein (5‐FAM) and a Förster resonance energy transfer quencher molecule (CPQ2) in close proximity, such that proteolytic cleavage would result in fluorescence signal (nanoparticle was denoted as TDN‐qFAM, Figure 1A). […] In addition, the colloidal stability of TDN‐qFAM was assessed by the absorption spectrum of TDN‐qFAM in the presence and absence of CAGE after 24 h of room temperature storage (Figure 1C). […]
(§2) The CAGE and TDNs coformulation was prepared by addition of 1 mL of CAGE onto 1 mg of conjugated PEG powder, followed by iterative short mixing and ultrasonication steps until a clear solution was observed. […] Size analysis was performed in dynamic light scattering (ZetaSizer), and absorbance spectra were obtained in Tecan Spectrophotometer. For in vitro cleavage assays, recombinant thrombin (10 × 10^−9 M working concentration) was mixed with TDN‐Q in CAGE (30%) solution (10 × 10^−6 M by peptide), and cleavage was monitored by fluorescence at 535 nm of dequenched 5‐carboxyfluorescein (5‐FAM). […]

[2] = Dynamic light scattering size analysis of nanosensors in CAGE; assay type: physicochemical
Description: as §1, §2

[3] = biological target: recombinant thrombin (Homo sapiens, UniProt P00734); assay: Fluorescence dequenching cleavage assay with recombinant thrombin; assay type: biochemical; details: fluorescence at 535 nm, triplicate
Description: To assess the solubility, stability, and activity of our nanosensors in CAGE, we conjugated a thrombin substrate (–GGfPRSGGG–) to 40 kDa PEG nanoparticles at an 8:1 substrate:nanoparticle ratio. The substrates were flanked by 5‐carboxyfluorescein (5‐FAM) and a Förster resonance energy transfer quencher molecule (CPQ2) in close proximity, such that proteolytic cleavage would result in fluorescence signal (nanoparticle was denoted as TDN‐qFAM, Figure 1A). […] In addition, the colloidal stability of TDN‐qFAM was assessed by the absorption spectrum of TDN‐qFAM in the presence and absence of CAGE after 24 h of room temperature storage (Figure 1C). […] We then investigated whether the presence of CAGE components influenced the stability of the peptide substrate and the activity of thrombin against TDN‐qFAM. […] However, upon stepwise dilution of CAGE with phosphate buffered saline (PBS), the functionality of TDN‐qFAM against thrombin cleavage was improved.
Figure 1 A) Chemical components of CAGE ionic liquid and schematic representation of TDN‐qFAM nanoparticles with thrombin substrate sequence. B) Dynamic light scattering and C) absorbance spectra of TDN‐qFAM in PBS and CAGE solutions. […]) Fluorescence dequenching experiment for enzyme cleavage kinetics in the presence (empty circles) and absence (full circles) of recombinant thrombin in the TDN‐qFAM/CAGE solution. […]

[4] = Ex vivo skin penetration, Franz diffusion cell, porcine skin; assay type: in vitro ADME; details: 300 µL, 37 °C, 24 h
Method: Porcine skin samples were placed on Franz diffusion cells, and the diffusion of TDN‐qFAM nanoparticles was tested with different concentrations of CAGE present in the formulation.
Figure 5 A) Confocal microscopy image of a paraffin‐embedded porcine skin section after 24 h of topical administration of TDN‐qFAM in 100% CAGE. Left: bright field; right: fluorescence image. Scale bar: 200 µm. B) Quantitative results of nanoparticles found in ex vivo porcine skin layers using Franz diffusion cell set‐up with different CAGE concentrations. (mean ± s.d., n = 3 independent skin slices).
The skin penetration studies were undertaken using porcine skin in Franz diffusion cells, as described previously in full.^[ [23] ^] Briefly, thawed porcine skin (CBSET, Lexington MA) or mouse skin removed from Swiss Webster strain was placed in a diffusion cell with the stratum corneum facing upwards. The acceptor component of the cell was filled with PBS and equipped with a magnetic stirrer bar. 300 µL was placed on top of the skin, ensuring full coverage. The diffusion cell was placed on a stirrer plate at 37 °C for 24 h, at which point the skin was removed and the surface washed gently with PBS. For quantitative analysis, the stratum corneum was removed by tape stripping (ten layers), the epidermis was separated from the dermis with a scalpel, and a 4 mm punch was used thrice to remove a third of the dermis (by area). The tissue was then placed into a 50% methanol/PBS mixture, and left to shake overnight at RT to extract the drug. 100 µL of the extracted fluid was then placed into a black Corning 96‐well plate and analyzed using a i3 SpectraMax plate reader, with excitation wavelength of 750 nm and an emission wavelength of 775 nm. For the confocal microscopy, the skin was affixed to a cryostat stage with fixing compound and 20 µm slices were taken using a cryostat (Leica CM1950, Leica, Germany). The slices of skin were placed on negatively charged slides (Fisher Scientific, Pittsburgh, PA, USA) and imaged using a confocal microscope (Upright Zeiss LSM 710 NLO) with a 10× air objective.

[5] = biological target: T1, endogenous thrombin (Mus musculus, UniProt P19221); assay: Cleavage kinetics in mouse serum at different CAGE concentrations; assay type: biochemical; details: 37 °C, fluorescence
T1 construct: The cleavage study was carried out in mouse serum obtained from Sigma Aldrich; tissue Sigma Aldrich; host or cells: mouse serum

[6] = Ex vivo skin penetration, Franz diffusion cell, mouse skin; assay type: in vitro ADME, mouse (Swiss Webster); details: 37 °C, 24 h, fluorescence, n = 3 skin samples
Method: Next, we validated the skin penetration of the nanosensors by coformulating unquenched, 5‐FAM labelled, thrombin substrate‐conjugated PEG nanoparticles (TDN‐FAM, Table S1, Supporting Information) and 30% CAGE solution. Ex vivo conditions were established by incubating TDN‐FAM/CAGE with mouse skin samples that were stabilized in a Franz diffusion cell set‐up.^[ [14], [15] ^] Three main layers of skin samples, namely stratum corneum, viable epidermis, and dermis, as well as the PBS solution underneath the skin (acceptor solution), were collected, and nanosensor concentration was quantified via fluorescence spectroscopy.
Figure 2 A) Quantification of TDN‐FAM extracted from different layers of mouse skin via fluorescence readout. SC: Stratum Corneum. […]
The skin penetration studies were undertaken using porcine skin in Franz diffusion cells, as described previously in full.^[ [23] ^] […] For quantitative analysis, the stratum corneum was removed by tape stripping (ten layers), the epidermis was separated from the dermis with a scalpel, and a 4 mm punch was used thrice to remove a third of the dermis (by area). […] 100 µL of the extracted fluid was then placed into a black Corning 96‐well plate and analyzed using a i3 SpectraMax plate reader, with excitation wavelength of 750 nm and an emission wavelength of 775 nm. […]

[7] = test system: acute pulmonary embolism mouse model; assay: Urinary reporter detection of thrombosis in thromboplastin-injected acute pulmonary embolism mouse model; assay type: in vivo, Swiss Webster mice; details: for ROC AUC: n = 5 per group
Description: Next, we sought to assess whether transdermally delivered nanosensors could detect disease in this model. Thrombin substrate flanked by near‐IR dye, Cy7, was conjugated to PEG nanoparticles (TDN‐Cy7), were solvated in 30% CAGE and administered topically to Swiss Webster mice. The TDN‐Cy7 nanoparticles were designed such that cleavage of the thrombin substrate would liberate a renally clearable fragment with Cy7 that could enable quantification in the urine by fluorescence. Concomitant quantification of plasma‐borne TDN‐Cy7 was performed to normalize the urine signal in order to mitigate the mouse‐to‐mouse variation that may arise due to the heterogeneous skin conditions present across individual subjects. Thromboplastin was intravenously administered to mice at different time points after topical administration of CAGE/TDN solution on the dorsal skin. Urine collection was performed 30 min after thromboplastin injection, and fluorescence measurement was carried out to detect reporter peptides in the urine. […] These finding indicate that topical administration with CAGE achieves circulatory delivery of nanosensors that enable sustained, noninvasive monitoring of thromboembolism in vivo as opposed to bolus injection into the blood.
Figure 4 A) Urinary reporter concentrations relative to plasma TDN‐Cy7 concentrations for thromboplastin‐injected (Thrombosis) and healthy control mice at different time points after nanosensor administration (mean ± s.d., n = 5 mice per group; *P < 0.05 and **P < 0.01, two‐tailed Mann–Whitney's […]). […] C) Urinary reporter concentrations in healthy versus thrombosis mice 6 h after intravenous injection of TDN‐Cy7 (mean ± s.d., n = 5 mice per group; ns: not significant). D) ROC curve calculated from data at panel (C) (AUC = 0.60).
For urine detection of thrombosis, 10 µL of CAGE (30%) containing TDN‐Cy7 nanosensor (4nmoles by peptide) was administered onto previously shaved dorsal skin of Swiss Webster mice, which were subsequently returned to their cages. At different time points postadministration, thromboplastin (0.75 µL g^−1 bodyweight of 4 mg mL^−1 stock in PBS) was injected intravenously, and both urine and blood (retroorbital draw) were collected 30 min p.i. Plasma is collected similar to the pharmacokinetic study and both urine and plasma were stored at −80 °C. Cleaved peptide reporters in the urine was quantified with fluorescence of Cy7 (Excitation 750 nm, emission 790 nm). Plasma levels of TDN‐Cy7 were similarly quantified using fluorescence and used for normalizing the urine signals.

endogenous thrombin activity against nanosensor in mouse serum ([5]; 30% CAGE, n = 3 measurements): partially hindered | functionality against thrombin cleavage in mouse serum on dilution of CAGE ([5]; stepwise dilution of CAGE with PBS (5%, 1%, 0.1%, 0%), n = 3): improved
Substance: 5FAM-GGfPRSGGGK(CPQ2)-(EG)2-C-[8armPEG] [TDN‐qFAM, Quenched thrombosis detecting nanosensors: 5-FAM/CPQ2-flanked thrombin substrate peptide conjugated to 40 kDa 8-arm PEG nanoparticles]
absorption maximum at 495 nm (5-FAM) after storage [1]: virtually unchanged | aggregation associated size increase (>100 nm), dynamic light scattering ([2]; 30% CAGE solution vs PBS, ZetaSizer): did not exhibit any significant aggregation associated size increase | mean hydrodynamic size when dissolved in CAGE ([2]; CAGE vs PBS, dynamic light scattering): slight increase | cleavage in the absence of recombinant enzyme ([3]; 30% CAGE alone, no thrombin): no cleavage was observed | cleavage (fluorescence dequenching) with recombinant thrombin ([3]; 30% CAGE, thrombin 10 × 10^-9 M, nanosensor 10 × 10^-6 M by peptide): clear cleavage profile with gradual increase in fluorescence intensity | penetration into porcine skin ([4]; 30% CAGE, fluorescence, n = 3 skin slices): slight increase in penetration | amount transported into porcine skin ([4]; in PBS, acceptor PBS, fluorescence): negligible amount | penetration through porcine skin ([4]; undiluted (100%) CAGE, fluorescence and confocal microscopy, n = 3 skin slices): dramatically improved penetration

Substance: 5FAM-GGfPRSGGGK-(EG)2-C-[8armPEG] [TDN‐FAM, Unquenched 5-carboxyfluorescein conjugated thrombosis detecting nanosensors on 8-arm PEG]
signal in dermis layer and acceptor solution ([6]; 30% CAGE vs PBS, 300 µL, acceptor PBS): markedly increased signal | recovery from dermis and acceptor layers ([6]; 50% CAGE vs 30% CAGE): even higher recovery

Substance: Cy7-GGfPRSGGGK-(EG)2-C-[8armPEG] [TDN‐Cy7, Unquenched Cy7 conjugated thrombosis detecting nanosensors on 8-arm PEG]
ROC AUC ([7]; 6 h after intravenous injection): 0.60 | amount of reporter in urine vs healthy background ([7]; intravenous injection 6 h before thromboplastin, n = 5): not significantly different from healthy background | urinary reporter signal, diseased vs healthy mice ([7]; topical 30% CAGE, 4 nmoles by peptide, thromboplastin 6 h after administration, urine 30 min later, normalised to plasma, n = 5, P = 0.0079): significantly increased | ROC AUC ([7]; topical 30% CAGE, 6 h after nanosensor administration): 1.00 | ROC AUC ([7]; topical 30% CAGE, 12 h after nanosensor administration): 1.00 | ROC AUC ([7]; topical 30% CAGE, 24 h after nanosensor administration): 0.96 | ROC AUC ([7]; topical 30% CAGE, 48 h after nanosensor administration): 0.84 | ROC AUC ([7]; topical 30% CAGE, 72 h after nanosensor administration): 0.72 | diagnostic power of urinary reporter ([7]; topical 30% CAGE, thrombosis induced at 12 h, n = 5): retained their diagnostic power | diagnostic power of urinary reporter ([7]; topical 30% CAGE, thrombosis induced at 24 hours, n = 5): retained their diagnostic power | discrimination of diseased from healthy mice ([7]; topical 30% CAGE, thrombosis induced at 48 hours, n = 5): could not discriminate diseased from healthy mice | discrimination of diseased from healthy mice ([7]; topical 30% CAGE, thrombosis induced at 72 hours, n = 5): could not discriminate diseased from healthy mice
